US12459951B2, “Compounds that interact with RAS superfamily proteins for treatment of cancers, inflammatory diseases, rasopathies, and fibrotic disease” (SHY Therapeutics, LLC, priority 2022, dated 2025)

Tests used:
[1] = test system: KRas wild type; assay: Ras GTP Binding Domain Inhibition Assay (Ras Superfamily Assay); details: 20 μM compound; for KRas wild type + SOS: % inh.: with SOS; for KRas wild type: % inh.: without SOS
In short: (§1)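 His-tagged GTPases immobilised on nickel-coated plates, pre-incubated with compound (20 μM single point, or serial dilution for IC50) 3 h at room temperature, with or without 10-30 μg/mL Sos (residues 556-1049) in the final hour. Bound Cy3- or Cy5-GTP (100 nM, 45 min) measured by fluorescence after washing.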

[2] = test system: KRas G12D mutant; assay: as above; details: 20 μM compound; for KRas G12D mutant + SOS: % inh.: with SOS; for KRas G12D mutant: % inh.: without SOS
In short: as §1

[3] = molecular target: T1, Rac-1 (Homo sapiens, UniProt P63000); assay: as above; details: read-out: Rac-1: % inh.
T1 construct: made in house
In short: as §1

[4] = test system: Akt phosphorylation; assay: Akt Phosphorylation Assay (western blot), Panc-1; type: cell-based, human; details: at 10 μM, * = activation
In short: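 Panc-1 (KRas G12D) cells were treated with compound at 10 μM final (0.3% DMSO) for 6 h at 37 °C, or with serial dilutions for IC50. Cells were either serum-starved overnight in 0.5% FBS and then stimulated with 1.5 ng/ml EGF for 15 min, or kept in 10% FBS without stimulation. Akt Ser473 phosphorylation in lysates was read by western blot.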

[5] = test system: TNF-alpha; assay: TNF-alpha Quantification Assay (ELISA), LPS-stimulated RAW 264.7; type: cell-based; details: Mus musculus, RAW264.7; at 10 μM; read-out: TNFα: % inh.
[6] = test system: IL6; assay: IL-6 Quantification Assay (ELISA), LPS-stimulated RAW 264.7; type: cell-based; parameters: inhibition: dose or concentration left out as unconfirmed; details: Mus musculus, RAW264.7; read-out: IL-6: % inh.

| Compound | KRas wild type + SOS: % inh. [1] | KRas wild type: % inh. [1] | KRas G12D mutant + SOS: % inh. [2] | KRas G12D mutant: % inh. [2] | inhibition at 20 µM [3] | % inh of Akt phosphorylation in Panc-1 [4] | inhibition at 10 µM [5] | inhibition [6] |
| --- | --- | --- | --- | --- | --- | --- | --- | --- |
| COc1cc(Nc2nc(-c3nccn3C)nn3cc(-c4ccn(C(C)C)n4)c(C)c23)ccn1 [Compound 87, 6-(1-Isopropyl-1H-pyrazol-3-yl)-N-(2-methoxypyridin-4-yl)-5-methyl-2-(1-methyl-1H-imidazol-2-yl)pyrrolo[2,1-f][1,2,4]triazin-4-amine] | 0 (0 = 0% inhibition) | 0 (0 = 0% inhibition) | A (A = 1-25% inhibition) | A (A = 1-25% inhibition) | 0% | D* (85-100% activation) | 0% | 0% |
| Cc1c(-c2ccn(C(C)C)n2)cn2nc(-c3nccn3C)nc(Nc3cc4n(n3)CCO4)c12 [Compound 91, N-(6-(1-Isopropyl-1H-pyrazol-3-yl)-5-methyl-2-(1-methyl-1H-imidazol-2-yl)pyrrolo[2,1-f][1,2,4]triazin-4-yl)-2,3-dihydropyrazolo[5,1-b]oxazol-6-amine] | C (C = 50-75% inhibition) | D (D = 76-100% inhibition) | D (D = 76-100% inhibition) | D (D = 76-100% inhibition) | 76 to 100% | D* (85-100% activation) | 1 to 24% | 1 to 24% |
| COC[C@@H]1CC[C@@H]1CNc1nc(-c2nccn2C)nn2cc(-c3ccn(C(C)C)n3)c(-c3ccccc3)c12 (racemic) [Compound 20, rac 6-(1-Isopropyl-1H-pyrazol-3-yl)-N-(((1S,2R)-2-(methoxymethyl)cyclobutyl)methyl)-2-(1-methyl-1H-imidazol-2-yl)-5-phenylpyrrolo[2,1-f][1,2,4]triazin-4-amine] | A (A = 1-25% inhibition) | A (A = 1-25% inhibition) | 0 (0 = 0% inhibition) | A (A = 1-25% inhibition) | 0% | D (85-100% inhibition) | 1 to 24% | 75 to 100% |
| COC1CCCN(c2nc(-c3nccn3C)nn3cc(-c4ccn(C(C)C)n4)c(-c4ccccc4)c23)C1 (racemic) [Compound 21, rac 6-(1-Isopropyl-1H-pyrazol-3-yl)-4-(3-methoxypiperidin-1-yl)-2-(1-methyl-1H-imidazol-2-yl)-5-phenylpyrrolo[2,1-f][1,2,4]triazine] | A (A = 1-25% inhibition) | A (A = 1-25% inhibition) | 0 (0 = 0% inhibition) | B (B = 26-49% inhibition) | 0% | C* (46-84% activation) | 0% | 1 to 24% |
| COc1cccc(Nc2nc(-c3nccn3C)nn3cc(-c4ccn(C(C)C)n4)c(C)c23)n1 [Compound 7, 6-(1-Isopropyl-1H-pyrazol-3-yl)-N-(6-methoxypyridin-2-yl)-5-methyl-2-(1-methyl-1H-imidazol-2-yl)pyrrolo[2,1-f][1,2,4]triazin-4-amine] | 0 (0 = 0% inhibition) | A (A = 1-25% inhibition) | 0 (0 = 0% inhibition) | A (A = 1-25% inhibition) | 0% | 0 (0% inhibition) | 0% | 1 to 24% |
